Assay results published in US20080051413A1, “Nitrophenylpiperazine derivative of xanthine which relaxes tracheal airway and increases respiratory performance” (KAOHSIUNG MEDICAL UNIVERSITY, priority 2006, published 2008).

Test system: cultured guinea pig tracheal smooth muscle cells
Test: Expression of PKA and PKG (Western blot)
Type: cell-based
Procedure: Cell Culture of Tracheal Smooth Muscle: Guinea pigs (350-450 g) were injected i.p. with a lethal dose of pentobarbital. The tracheas were excised and cut longitudinally through the cartilage. Using a dissecting microscope, TSM strips were dissected from the surrounding parentchyma. The epithelium was removed from the luminal surface, and bands of TSM were gently separated from the underlying connective tissue. Then TSM strips were chopped into small sections (1 mm^3) and incubated in Hanks' balanced salt solution (138 mM NaCl, 4 mM NaHCO3, 5 mM KCl, 0.3 mM KH2PO4, 0.3 mM Na2HPO4, and 1.0 mM glucose) with 0.05% elastase type IV and 0.2% collagenase type IV (Invitrogen, Carlsbad, Calif.) for 30 min at 37_ with gentle shaking. The solution of dissociated smooth muscle cells was centrifuged (6 min at 500 g), and the pellet was resuspended in 1:1 Dulbecco's modified Eagle's medium/Ham's F-12 medium supplemented with 10% fetal bovine serum, 0.244% NaHCO3, and 1% penicillin/streptomycin. Cells were cultured in 25-cm^2 flasks at 37_ in humidified air containing 5% CO2. Confluent cells were detached with 0.25% trypsin-0.02% EDTA at 37_and then subcultured to establish secondary cultures. Cultures were maintained for no more than four passages. They were identified as smooth muscle cells by the typical hill-and-valley appearance, and cellular homogeneity was further confirmed by the presence of smooth muscle specific _-myosin and _-actin immunoreactivity. Indirect immunofluorescence staining for a variety of antigens was carried out by first plating the cells on chamber slides, fixing the cells in 3.7% formaldehyde-phosphate-buffered saline for 10 min, and permeabilizing the cells with phosphate-buffered saline and 0.1% Triton X-100. Cells were then stained with either a mouse monoclonal antibody directed against the amino-terminal 10 amino acids of _-smooth muscle actin or _-myosin (Roche Diagnostics, Indianapolis, Ind.). All cells were stained with fluorescein-labeled goat anti-mouse IgG antibody (Roche Diagnostics).
Expression of PKA and PKG: The expression of PKA and PKG was determined by Western blot as previously described by Wu et al. and Murthy et al. (Wu B N, Lin R J, Lo Y C, Shen K P, Wang C C, Lin Y T, and Chen I J (2004) KMUP-1, a xanthine derivatives, induces relaxation of guinea-pig isolated trachea: the role of the epithelium, cyclic nucleotides and K^+ channels. Br J Pharmacol 142:1105-1114; Murthy K S, Zhou H, and Makhlouf G M (2002) PKA-dependent activation of PDE3A and PDE4 and inhibition of adenylyl cyclase V/VI in smooth muscle. Am J Physiol 282:C508-C517). Guinea pig TSMCs were incubated with KMUP-3 for 30 min. Each of the cell lysates, each containing 1 _g of cellular protein, was electrophoresed in 7.5% SDS-polyacrylamide gel electrophoresis and then transferred to polyvinylidene diflouride membrane (Millipore Corporation, Billerica, Mass.). The membrane was stained with Ponceau S to verify the integrity of the transferred proteins and to monitor the unbiased transfer of all protein samples. The membrane was then washed with 25 ml of TBS (100 mM NaCl, 0.1% and 10 mM Tris-HCl, pH 7.5) for 5 min at room temperature and incubated in 25 ml of blocking buffer (TBS plus 0.1% Tween 20 and 5% nonfat milk) overnight at 4_. In the measurement of protein, the membrane was incubated with appropriate PKARI or PKA1—1— primary antibody (diluted 1:250) in 2 ml of blocking buffer for 1 h at room temperature, washed three times for 5 min each with 15 ml of Tris-buffered saline/Tween 20 (TBS plus 0.1% Tween 20), incubated with horseradish peroxidase-conjugated secondary antibody (1:10,000) in 15 ml of blocking buffer with gentle agitation for 1 h at room temperature, and finally washed three times for 5 min each time with 15 ml of Tris-buffered saline/Tween 20. The membrane was then subjected to enhanced chemiluminescence (GE Healthcare) for the detection of the specific antigen.

In the case of `Cn1c(=O)c2c(ncn2CCN2CCN(c3ccc([N+](=O)[O-])cc3)CC2)n(C)c1=O` [KMUP-3], the “expression of PKA1—1— (FIG. 7(B))” value (1 _M, 30 min) is reported as “increased the expression of PKA1—1—”, the “expression of immunoreactive PKARI protein (FIG. 7(A))” value (1 _M, 30 min) is reported as “increased the expression of PKARI” and the “PKG protein after ODQ pretreatment” value (ODQ (10_M) 30 min prior to compound (1 _M)) is reported as “significantly reduced”. The “PKA protein expression after ODQ pretreatment” value (ODQ (10 _M) 30 min prior to compound, unpublished data) was “did not significantly affect” and the “expression of PKARI after SQ 22536 pretreatment” value (SQ 22536 (100 _M) 30 min prior to compound (1 _M)) was “attenuated”.
